Assay results as given in patent publication US20210198259A1, “HETEROCYCLIC DERIVATIVES AND USE THEREOF” (C&C RESEARCH LABORATORIES, priority 2018, published 2021).
Counter-ions that a name gives are not always drawn.

What follows are compounds tested against T1, human histamine 4 receptor (hH4R) (Homo sapiens, UniProt Q9H3N8) (assay: Binding affinity of human histamine 4 receptor (hH4R), [3H] histamine displacement). Conditions: [3H] labeled histamine, hH4R-overexpressed cell membrane.
T1 construct: purchased Multispan
T1 sequence (Q9H3N8 whole entry): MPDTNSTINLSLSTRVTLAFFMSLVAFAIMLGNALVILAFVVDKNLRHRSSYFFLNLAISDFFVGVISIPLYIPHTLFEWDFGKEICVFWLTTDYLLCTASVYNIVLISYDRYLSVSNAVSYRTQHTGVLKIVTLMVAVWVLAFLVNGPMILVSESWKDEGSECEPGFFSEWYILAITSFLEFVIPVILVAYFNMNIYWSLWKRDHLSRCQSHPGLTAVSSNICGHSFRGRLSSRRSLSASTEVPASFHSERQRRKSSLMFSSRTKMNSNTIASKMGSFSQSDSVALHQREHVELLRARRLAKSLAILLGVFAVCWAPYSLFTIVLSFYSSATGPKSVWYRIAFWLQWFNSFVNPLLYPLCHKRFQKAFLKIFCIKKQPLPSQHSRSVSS
Experimental: The compounds prepared in the above Examples, the compound of Example 55 of International Publication No. WO 2010/030785 and the compound of Example 4 of International Publication No. WO 2013/048214 were diluted by 1,000 fold (v/w) with DMSO, and then 1 mL of the diluted compound solution was mixed with 99 mL of the analysis buffer solution (50 mM tris-HCl pH 7.4, 5 mM EDTA) to obtain concentration of 1 μM. […] of the prepared compound solution was transferred to each well of a 96-well plate, and then 20 mL of 100 μM histamine diluted with analysis buffer solution and 1% DMSO were transferred to each well to calculate non-specific binding and total binding degree. 15 μg of human histamine 4 receptor-overexpressed cell membrane (Multispan) was diluted into […] of analysis buffer solution and that was transferred to each well. [^3H] labeled histamine (PerkinElmer) was diluted into 10 nM concentration, 20 mL was allocated in each well, and then it was kept in a 27° C. incubator for 30 minutes. After the reaction, 100 mL of the mixture was transferred to a glass fiber plate in which 0.5% polyethylene amine was pre-soaked, and then non-binding [^3H] labeled histamine was removed in vacuum. After 6 times washing with 200 mL of washing buffer solution (50 mM tris-HCl, pH 7.4), the plate was dried in a 37° C. oven for 18 hours. […] of betaScint cocktail solution was added to each well, and after 10 minutes CPM (count per minute) value of [^3H] labeled histamine was measured by the use of Micro beta2™. The binding affinity (% inhibition) of the human histamine 4 receptor for the compounds of the present invention was analyzed by an Excel program, and the results of analysis are represented in Table 1.
With CN1CCN(C2=Nc3nc(F)c(Br)cc3N3CC(=O)N=C23)CC1 [Example 9, 8-bromo-7-fluoro-4-(4-methylpiperazin-1-yl)imidazo[1.2-a]pyrido[2,3-e]pyrazin-2(1H)-one] the inhibition at 1 µM was 94.4%.
With CNC1CN(C2=Nc3cnc(Cl)cc3N3CC(=O)N=C23)C1 [Example 24, 8-chloro-4-(3-(methylamino)azetidin-1-yl)imidazo[1,2-a]pyrido[3,4-e]pyrazin-2(1H)-one] the “Human histamine 4 receptor (hH4R) binding affinity (% inhibition at 1 μM)” value was 91.9%.
Work on CN1CCN(c2nc3ncc(Br)cc3n3c(=O)[nH]nc23)CC1 [Example 6, 8-bromo-4-(4-methylpiperazin-1-yl)pyrido[2,3-e][1,2,4] triazolo[4,3-a]pyrazin-1(2H)-one] yielded an inhibition at 1 µM of 42.6%.
With CN1CCN(C2=Nc3ccc(Br)nc3N3CC(=O)N=C23)CC1 [Example 30, 2-bromo-6-(4-methylpiperazin-1-yl)imidazo[1,2-a]pyrido[3,2-e]pyrazin-8(9H)-one] the inhibition at 1 µM was 93.2%.
Compound CN1CCN(C2=Nc3ncc(Br)cc3N3CS(=O)(=O)N=C23)CC1 [Example 27, 8-bromo-4-(4-methylpiperazin-1-yl)-1H-pyrido[2,3-e][1,2,4]thiadiazolo[4,3-a]pyrazin 2,2-dioxide] has an inhibition at 1 µM of 22.6%.
CN1CCN(C2=Nc3ncc(Cl)cc3N3CC(=O)N=C23)CC1 [Example 17, 8-chloro-4-(4-methylpiperazin-1-yl)imidazo[1,2-a]pyrido[2,3-e]pyrazin-2(1H)-one] gave an inhibition at 1 µM of 87.1%.
CNC1CN(C2=Nc3cnc(Br)cc3N3CC(=O)N=C23)C1 [Example 26, 8-bromo-4-(3-(methylamino)azetidin-1-yl)imidazo[1,2-a]pyrido[3,4-e]pyrazin-2(1H)-one] was tested, and the inhibition at 1 µM was 93.4%.
For CNC1CN(C2=Nc3ccc(NS(C)(=O)=O)cc3N3CC(=O)N=C23)C1 [Example 16, N-(4-(3-(methylamino)azetidin-1-yl)-2-oxo-1,2-dihydroimidazo[1,2-a]quinoxalin-8-yl)methanesulfonamide], the inhibition at 1 µM was -5.98%.
CN1CCN(C2=Nc3cc(Cl)ncc3N3CC(=O)N=C23)CC1 [Example 22, 3-chloro-6-(4-methylpiperazin-1-yl)imidazo[1,2-a]pyrido[4,3-e]pyrazin-8(9H)-one] showed an inhibition at 1 µM of 86.3%.
Work on CN1CCN(c2nc3ncc(Br)cc3n3[nH]c(=O)nc23)CC1 [Example 7, 8-bromo-4-(4-methylpiperazin-1-yl)pyrido[2,3-e][1,2,4] triazolo[1,5-a]pyrazin-2(1H)-one] yielded an inhibition at 1 µM of -1.12%.
Compound CNC1CN(C2=Nc3ncc(Br)cc3N3CC(=O)N=C23)C1 [Example 2, 8-bromo-4-(3-(methylamino)azetidin-1-yl)imidazo[1,2-a]pyrido[2,3-e]pyrazin-2(1H)-one] has an inhibition at 1 µM of 39.5%.
Work on CN1CCN(C2=Nc3ccc(Br)c(Br)c3N3CC(=O)N=C23)CC1 [Example 15, 8,9-dibromo-4-(4-methylpiperazin-1-yl)imidazo[1,2-a]quinoxalin-2(1H)-one] yielded an inhibition at 1 µM of 99.2%.
In the case of CN1CCN(C2=Nc3ccc(Cl)nc3N3CC(=O)N=C23)CC1 [Example 29, 2-chloro-6-(4-methylpiperazin-1-yl)imidazo[1,2-a]pyrido[3,2-e]pyrazin-8(9H)-one], the inhibition at 1 µM is reported as 97.3%.
CN[C@H]1CCN(C2=Nc3ncc(Br)cc3N3CC(=O)N=C23)C1 [Example 4, (S)-8-bromo-4-(3-(methylamino)pyrrolidin-1-yl)imidazo[1.2-a]pyrido[2.3-e]pyrazin-2(1H)-one] showed an inhibition at 1 µM of -4.38%.
CN1CCN(C2=Nc3nc(Cl)c(Br)cc3N3CC(=O)N=C23)CC1 [Example 8, 8-bromo-7-chloro-4-(4-methylpiperazin-1-yl)imidazo[1,2-a]pyrido[2,3-e]pyrazin-2(1H)-one] showed an inhibition at 1 µM of 88.9%.
CN1CCN(C2=Nc3cnc(Br)cc3N3CC(=O)N=C23)CC1 [Example 25, 8-bromo-4-(4-methylpiperazin-1-yl)imidazo[1,2-a]pyrido[3,4-e]pyrazin-2(1H)-one] was tested, and the inhibition at 1 µM was 96.9%.
In the case of O=C1CN2C(=N1)C(N1CCN3CCCC3C1)=Nc1ncc(Br)cc12 (stereo not shown) [Example 5, 8-bromo-4-(hexahydropyrrolo[1,2-a]pyrazin-2(1H)-yl)imidazo[1,2-a]pyrido[2,3-e]pyrazin-2(1H)-one], the inhibition at 1 µM is reported as 55.9%.
CN1CCN(C2=Nc3ccc(Br)cc3N3CC(=O)NN=C23)CC1 [Example 14, 9-bromo-5-(4-methylpiperazin-1-yl)-1H -[1,2,4]triazino[43-a]quinoxalin-2(3H)-one] showed an inhibition at 1 µM of 52.6%.
Work on CNC1CN(C2=Nc3cnc(Cl)cc3N3CC(=O)N=C23)C1 [Example 23, 8-chloro-4-(3-(methylamino)azetidin-1-yl)imidazo[1.2-a]pyrido[3.4-e]pyrazin-2(1H)-one hydrochloride] yielded an inhibition at 1 µM of 89.4%.
CNC1CN(C2=Nc3ccc(Br)nc3N3CC(=O)N=C23)C1 [Example 32, 2-bromo-6-(3-(methylamino)azetidin-1-yl)imidazo[1,2-a]pyrido[3,2-e]pyrazin-8(9H)-one] showed an inhibition at 1 µM of 97.4%.
Work on CN1CCN(C2=Nc3cnc(Cl)cc3N3CC(=O)N=C23)CC1 [Example 28, 8-chloro-4-(4-methylpiperazin-1-yl)imidazo[1,2-a]pyrido[3,4-e]pyrazin-2(1H)-one hydrochloride] yielded an inhibition at 1 µM of 96.8%.
CNC1CN(C2=Nc3ccc(N)cc3N3CC(=O)N=C23)C1 [Example 18, 8-amino-4-(3-(methylamino)azetidin-1-yl)imidazo[1,2-a]quinoxalin-2(1H)-one] was tested, and the inhibition at 1 µM was 34.1%.
Work on CNC1CN(C2=Nc3ccc(Br)cc3N3CC(=O)N=C23)C1 [Example 21, 8-bromo-4-(3-(methylamino)azetidin-1-yl)imidazo[1,2-a]quinoxalin-2(1H)-one hydrochloride] yielded an inhibition at 1 µM of 95.9%.
With CNC1CN(C2=Nc3ccc(Cl)cc3N3CC(=O)N=C23)C1 [Example 19, 8-chloro-4-(3-(methylamino)azetidin-1-yl)imidazo[1,2-a]quinoxalin-2(1H)-one] the inhibition at 1 µM was 96%.
With CN[C@@H]1CCN(C2=Nc3ncc(Br)cc3N3CC(=O)N=C23)C1 [Example 3, (R)-8-bromo-4-(3-(methylamino)pyrrolidin-1-yl)imidazo[1,2-a]pyrido[2,3-e]pyrazin-2(1H)-one] the inhibition at 1 µM was 9.8%.
Work on CNC1CN(C2=Nc3ccc(Cl)nc3N3CC(=O)N=C23)C1 [Example 31, 2-chloro-6-(3-(methylamino)azetidin-1-yl)imidazo[1,2-a]pyrido[3,2-e]pyrazin-8(9H)-one] yielded an inhibition at 1 µM of 97.7%.
Compound CNC1CN(C2=Nc3ncc(Cl)cc3N3CC(=O)N=C23)C1 [Example 20, 8-chloro-4-(3-(methylamino)azetidin-1-yl)imidazo[1,2-a]pyrido[2,3-e]pyrazin-2(1H)-one] has an inhibition at 1 µM of 20.5%.
For CN1CCN(C2=Nc3ccc(N)cc3N3CC(=O)N=C23)CC1 [Example 11, 8-amino-4-(4-methylpiperazin-1-yl)imidazo[1,2-a]quinoxalin-2(1H)-one], the inhibition at 1 µM was 44.8%.
